Measured values: patent US20240270801A1, “EPITOPE PEPTIDE OF HUMAN ALPHA-SYNUCLEIN AND PHARMACEUTICAL COMPOSITION INCLUDING SAID PEPTIDE” (Sumitomo Pharma Co., Ltd., priority 2021, published 2024)
Non-standard residues stand in square brackets, D forms with d. No end group written: not given here. Ahx = NCCCCCC(=O)O

How the values were obtained:
aggregated human αSyn = experiment: Antibody-inducing ability in mice: ELISA antibody titer of immune serum with respect to aggregated human αSyn; type: in vivo, mouse; details: mice
Method: (§1) Using the various AJ peptide-human αSyn peptide conjugates produced in Example 1, an antibody-inducing ability with respect to human αSyn in mice was evaluated. The various AJ-human αSyn peptide conjugates (250 μg/mouse) or KLH-DMPVDPDN (25 μg/mouse) in physiological saline were intramuscularly administered to balb/c mice (females, 6 weeks old, CLEA Japan, Inc.) twice at a 2-week interval for immunization using aluminum hydroxide (Alum) (InvivoGen, 50 μg/mouse) as an adjuvant. As a negative control, physiological saline (100 μL/mouse) comprising the same amount of aluminum hydroxide was administered twice. Two weeks after the second administration, serum was recovered to evaluate the antibody titer with respect to human αSyn by ELISA.
(§2) ELISA was performed by the following method. 96-well plates were coated with human αSyn (Sigma) at 0.2 μg/well. After washing with PBST (Phosphate Buffered Saline comprising 0.05% Tween) once, blocking was performed with 3% skim milk (FUJIFILM Wako Pure Chemical Corporation). After washing with PBST three times, diluted serum was added to cause a reaction at room temperature for 1 hour. Furthermore, after washing with PBST three times, Goat anti-mouse IgG-HRP (abcam) was added to cause a reaction at room temperature for 1 hour. After washing with PBST three times, SureBlue TMB Microwell Peroxidase Substrate (KPL) was added to cause a reaction at room temperature for 10 minutes while light shielding. An equal volume of a TMB Stop Solution (KPL) was added to stop the reaction, and the absorbance at 450 nm was measured. ELISA with respect to aggregated human αSyn was performed by coating with the aggregated human αSyn (Stress Marq) at 15 ng/well instead of human αSyn in the above-mentioned method.
The antibody-inducing ability of the AJ-human αSyn peptide conjugates (AJ-p54, AJ-p54-KLH, and AJ-DMPVDPDN) produced in Example 1 with respect to human αSyn and aggregated human αSyn in mice was evaluated. Physiological saline or the AJ-human αSyn peptide conjugate (250 μg/mouse) was intramuscularly administered to balb/c mice (females, 6 weeks old, CLEA Japan, Inc.) twice at a 2-week interval using Alum (InvivoGen, 50 μg/mouse) as an adjuvant. Furthermore, KLH-DMPVDPDN (25 μg/mouse) was administered using Alum (InvivoGen, 50 μg/mouse) as an adjuvant. Two weeks after the second administration, serum was recovered to evaluate the antibody titer by ELISA. ELISA was performed by the method described in Example 2.
The antibody-inducing ability of the produced various human αSyn peptide conjugates with respect to human αSyn and aggregated human αSyn in the mice was evaluated by the method described in Example 2 using the antibody titers with respect to human αSyn and aggregated human αSyn of the mouse immune serum. […] In Table 6, the antibody titer of AJ-p242, AJ-p244, AJ-p347, or AJ-p361 is shown with the antibody titer of AJ-p150 as a control being 1 (logarithm). In addition, the antibody titers of AJ-p229, AJ-p237, and AJ-p298 are shown with the antibody titer of AJ-p54 as a control being 1 (logarithm).
The antibody-inducing ability of the AJ-human αSyn peptide conjugates with a modified linker with respect to human αSyn and aggregated human αSyn in the mice was evaluated using the antibody titers with respect to human αSyn and aggregated human αSyn of the mouse immune serum. […] In Table 8, the antibody titers of the AJ-human αSyn peptide conjugates with various modified linkers comprising p54 are shown with the antibody titer of AJ-p54 as a control being 1 (logarithm). In addition, the antibody titers of the AJ-human αSyn peptide conjugates with various modified linkers comprising p150 are shown with the antibody titer of AJ-p150 as a control being 1 (logarithm).

human αSyn = experiment: Antibody-inducing ability in mice: ELISA antibody titer of immune serum with respect to human αSyn; type: in vivo, mouse; set-up: key to Antibody titer with respect to human αSyn, relative to control: log titer relative to control conjugate (control = 1); details: for Antibody titer with respect to human αSyn, relative to control: mice
Method: as §1
as §2, with “above-mentioned method. […]” for “above-mentioned method.”
The antibody-inducing ability of the produced various human αSyn peptide conjugates with respect to human αSyn and aggregated human αSyn in the mice was evaluated by the method described in Example 2 using the antibody titers with respect to human αSyn and aggregated human αSyn of the mouse immune serum. […] In Table 6, the antibody titer of AJ-p242, AJ-p244, AJ-p347, or AJ-p361 is shown with the antibody titer of AJ-p150 as a control being 1 (logarithm). In addition, the antibody titers of AJ-p229, AJ-p237, and AJ-p298 are shown with the antibody titer of AJ-p54 as a control being 1 (logarithm). […]

[1] = Example 10, modified linker, titer of AJ-p54 or AJ-p150 as control being 1 (logarithm)
[2] = Example 9, N = 4, titer of AJ-p150 or AJ-p54 as control being 1 (logarithm)

| Sequence | Antibody titer with respect to aggregated human αSyn, relative to control (aggregated human αSyn; [1]) | Antibody titer with respect to human αSyn, relative to control (human αSyn; [1]) | Antibody titer with respect to aggregated human αSyn, relative to control (aggregated human αSyn; [2]) | Antibody titer compared with control conjugate (in words) (human αSyn; Example 9, mice, human αSyn and aggregated human αSyn, control AJ-p150 or AJ-p54) | Antibody titer with respect to human αSyn, relative to control (human αSyn; [2]) |
| --- | --- | --- | --- | --- | --- |
| ELKLIFLHRLKRLRKRLKRKDDAKKEAYEMPSEE [AJ-DDAKK-p150] | 1.30 | 1.14 |  |  |  |
| ELKLIFLHRLKRLRKRLKRKDDAKKKKDQLGKNE [AJ-DDAKK-p54] | 0.98 | 1.03 |  |  |  |
| ELKLIFLHRLKRLRKRLKRKEAAAKEAYEMPSEE [AJ-EAAAK-p150] | 1.16 | 1.14 |  |  |  |
| ELKLIFLHRLKRLRKRLKRKEAAAKKKDQLGKNE [AJ-EAAAK-p54] | 0.96 | 0.96 |  |  |  |
| ELKLIFLHRLKRLRKRLKRKGEAYEMPSEE [AJ-G-p150] | 0.95 | 0.96 |  |  |  |
| ELKLIFLHRLKRLRKRLKRKGGGGSEAYEMPSEE [AJ-GGGGS-p150] | 1.25 | 1.19 |  |  |  |
| ELKLIFLHRLKRLRKRLKRKGGGGSKKDQLGKNE [AJ-GGGGS-p54] | 1.02 | 1.05 |  |  |  |
| ELKLIFLHRLKRLRKRLKRKGKKDQLGKNE [AJ-G-p54] | 0.96 | 0.89 |  |  |  |
| ELKLIFLHRLKRLRKRLKRKPPDPDPEAYEMPSEE [AJ-PPDPDP-p150] | 1.37 | 1.33 |  |  |  |
| ELKLIFLHRLKRLRKRLKRKPPDPDPKKDQLGKNE [AJ-PPDPDP-p54] | 0.88 | 0.89 |  |  |  |
| ELKLIFLHRLKRLRKRLKRKXAAYEMPSEEG (ELKLIFLHRLKRLRKRLKRK[Ahx]AAYEMPSEEG) [AJ-p242] |  |  | 1.12 | same level of an antibody titer | 1.06 |
